{"source": "paper PMC12368815", "about": "“Targeting Cancer with New Morpholine-Benzimidazole-Oxadiazole Derivatives: Synthesis, Biological Evaluation, and Computational Insights” (ACS Omega, 2025)", "key": {"[1]": {"test_system": "NIH3T3 (healthy normal fibroblast cells)", "assay": "MTT cytotoxicity assay on NIH3T3 normal fibroblasts", "assay_type": "cell-based", "details": "Mus musculus, mean of four independent assays", "description": "(§1) Compounds 5a–5j were evaluated for their anticancer activity via the MTT assay against the HT-29 cell line. […] Both the synthesized compounds and standards were tested across concentrations from 1000 to 0.49 μg/mL.\n(§2) The cytotoxic effects of the compounds on colon cancer (HT29, ATCC HTB-38) and normal healthy fibroblast (NIH3T3, ATCC CRL-1658) cell lines were evaluated using the MTT assay. Based on the cytotoxicity data 5c, 5h and 5j stand out in terms of activity."}, "[2]": {"test_system": "HT-29 cell line (human colon cancer cell line)", "assay": "MTT cytotoxicity assay on HT-29 colon cancer cells", "assay_type": "cell-based", "details": "for IC50: Homo sapiens, HT-29, MTT, mean of four independent assays, read-out: IC50 HT29; for Selectivity index (SI): NIH3T3 versus HT29", "description": "as §1, §2"}, "[3]": {"biological_target": "T1, VEGFR-2 enzyme (Homo sapiens, UniProt P35968)", "T1 construct": "purchased", "T1 sequence (P35968 20-1356)": "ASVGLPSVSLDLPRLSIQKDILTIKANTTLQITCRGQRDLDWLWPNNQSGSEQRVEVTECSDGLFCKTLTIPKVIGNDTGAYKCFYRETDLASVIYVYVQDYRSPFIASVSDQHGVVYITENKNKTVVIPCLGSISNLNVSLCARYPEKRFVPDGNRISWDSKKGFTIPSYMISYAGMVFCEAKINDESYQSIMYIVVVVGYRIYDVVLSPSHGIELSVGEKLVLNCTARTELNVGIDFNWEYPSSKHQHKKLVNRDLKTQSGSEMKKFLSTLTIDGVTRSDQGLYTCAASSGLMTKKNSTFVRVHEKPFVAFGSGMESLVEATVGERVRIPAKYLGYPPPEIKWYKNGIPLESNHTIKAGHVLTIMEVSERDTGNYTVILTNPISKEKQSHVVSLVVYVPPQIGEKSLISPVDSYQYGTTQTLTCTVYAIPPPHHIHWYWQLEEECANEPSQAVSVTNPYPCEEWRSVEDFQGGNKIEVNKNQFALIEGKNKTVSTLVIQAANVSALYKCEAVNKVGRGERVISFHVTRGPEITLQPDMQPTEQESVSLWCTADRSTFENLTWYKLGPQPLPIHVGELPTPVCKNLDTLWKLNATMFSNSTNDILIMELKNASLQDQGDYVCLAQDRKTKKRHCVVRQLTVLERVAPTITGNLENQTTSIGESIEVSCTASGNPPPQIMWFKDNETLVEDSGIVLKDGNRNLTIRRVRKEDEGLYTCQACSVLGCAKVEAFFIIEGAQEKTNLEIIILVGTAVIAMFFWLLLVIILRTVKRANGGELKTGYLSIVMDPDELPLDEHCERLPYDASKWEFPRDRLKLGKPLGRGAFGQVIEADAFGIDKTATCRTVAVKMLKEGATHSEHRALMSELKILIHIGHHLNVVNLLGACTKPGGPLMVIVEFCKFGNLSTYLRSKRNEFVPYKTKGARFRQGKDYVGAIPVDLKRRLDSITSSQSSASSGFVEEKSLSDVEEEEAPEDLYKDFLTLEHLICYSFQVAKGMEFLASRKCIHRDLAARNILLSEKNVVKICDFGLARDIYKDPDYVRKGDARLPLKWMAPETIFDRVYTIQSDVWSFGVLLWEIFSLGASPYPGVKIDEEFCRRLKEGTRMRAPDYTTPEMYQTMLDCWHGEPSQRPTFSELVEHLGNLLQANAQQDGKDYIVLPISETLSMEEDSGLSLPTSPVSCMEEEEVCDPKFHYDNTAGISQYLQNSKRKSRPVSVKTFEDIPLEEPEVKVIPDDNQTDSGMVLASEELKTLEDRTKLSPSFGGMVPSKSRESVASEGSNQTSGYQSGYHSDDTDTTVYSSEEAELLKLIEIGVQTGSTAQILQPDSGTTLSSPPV", "assay": "In vitro VEGFR-2 enzyme inhibition assay kit", "assay_type": "biochemical", "description": "The inhibitory effects of the synthesized compounds on the VEGFR-2 enzyme were assessed using an in vitro assay kit (Table )."}, "[4]": {"test_system": "HT-29 cells", "assay": "Annexin V-FITC/PI flow cytometry apoptosis analysis", "assay_type": "cell-based, human", "details": "HT29, compound at IC50 concentration, 24 h, mean of two repetitions", "text": "Programmed cell death-apoptosis is a normal physiological process in healthy organisms that eliminates cells no longer needed. During apoptosis, phosphatidylserine (PS) in the cell membrane is translocated to the outer layer. The Annexin V protein included in the kit binds to this externalized PS, enabling its detection with FITC, a fluorescent marker. Annexin V can also bind to necrotic cells. In such cases, the cells are identified using “Ethidium Homodimer III (EthD-III) (or propidium iodide, PI)”. Flow cytometric assay kits use double-staining protocols to assess apoptosis by detecting differences in cell morphology through the binding efficiency of the Annexin–V complex to PS on the cell surface. , Apoptotic, Necrotic, and Healthy Cells Detection Kit [Available from (Apoptic necrotic kit)] used during flow cytometer analysis.\nBriefly, HT-29 cells were plated in six-well plates following the manufacturer’s guidelines and exposed to the compounds at their IC50 concentrations for 24 h. Following treatment, cell suspensions were centrifuged at 1200 rpm for 5 min, and the resulting pellets were rinsed twice with 1 mL of cold phosphate-buffered saline. The assay kits were used according to the manufacturer’s instructions by transferring cells to the appropriate buffer solutions. For each sample, at least 10 000 cells were evaluated. Cell population fractions in various quadrants and gates were determined using quadrant and gate statistical analysis, with settings optimized based on comparison to the untreated control group.\nTo further investigate the mechanism underlying its anticancer effect, the ability of compound 5h to induce apoptosis was assessed using the Annexin V-FITC/PI dual staining method. The results are presented in Figure , where the data are shown in four quadrants corresponding to different cell populations: live (living) cells correspond to Q1-LL, early apoptotic cells to Q1-LR, late apoptotic cells to Q1-UR, and necrotic cells to Q1-UL."}}, "data": [{"compound": "O=C(CSc1nnc(-c2ccc3nc(-c4ccc(N5CCOCC5)cc4)[nH]c3c2)o1)c1ccccc1", "note": "[5a, 2-(5-(2-(4-Morpholinophenyl)-1H-benzo[d]imidazol-6-yl)-1,3,4-oxadiazol-2-ylthio)-1-phenylethan-1-One]", "values": [{"measurement": "IC50", "setting": "[1]", "value": "193 ± 7.56", "unit": "µM"}, {"measurement": "IC50", "setting": "[2]", "value": "135 ± 3.37", "unit": "µM"}, {"measurement": "Selectivity index (SI)", "setting": "[2]", "value": 1.42}]}, {"compound": "Cc1ccc(C(=O)CSc2nnc(-c3ccc4nc(-c5ccc(N6CCOCC6)cc5)[nH]c4c3)o2)cc1", "note": "[5b, 2-(5-(2-(4-Morpholinophenyl)-1H-benzo[d]imidazol-6-yl)-1,3,4-oxadiazol-2-ylthio)-1-(p-tolyl) Ethan-1-One]", "values": [{"measurement": "IC50", "setting": "[1]", "value": "10.5 ± 2.17", "unit": "µM"}, {"measurement": "IC50", "setting": "[2]", "value": "22.7 ± 2.39", "unit": "µM"}, {"measurement": "Selectivity index (SI)", "setting": "[2]", "value": 0.46}]}, {"compound": "COc1ccc(C(=O)CSc2nnc(-c3ccc4nc(-c5ccc(N6CCOCC6)cc5)[nH]c4c3)o2)cc1", "note": "[5c, 1-(4-Methoxyphenyl)-2-(5-(2-(4-morpholinophenyl)-1H-benzo[d]imidazol-6-yl-1,3,4-oxadiazol-2-yl) Thio) Ethan-1-One]", "values": [{"measurement": "IC50", "setting": "[3]", "value": "0.918 ± 0.027", "unit": "µM"}, {"measurement": "IC50", "setting": "[1]", "value": "10.4 ± 0.205", "unit": "µM"}, {"measurement": "IC50", "setting": "[2]", "value": "17.8 ± 1.77", "unit": "µM"}, {"measurement": "Selectivity index (SI)", "setting": "[2]", "value": 0.59}]}, {"compound": "O=C(CSc1nnc(-c2ccc3nc(-c4ccc(N5CCOCC5)cc4)[nH]c3c2)o1)c1ccc(F)cc1", "note": "[5d, 1-(4-Fluorophenyl)-2-((5-(2-(4-morpholinophenyl)-1H-benzo[d]imidazol-6-yl)-1,3,4-oxadiazol-2-yl) Thio) Ethan-1-One]", "values": [{"measurement": "IC50", "setting": "[1]", "value": "163 ± 3.75", "unit": "µM"}, {"measurement": "IC50", "setting": "[2]", "value": "175 ± 5.92", "unit": "µM"}, {"measurement": "Selectivity index (SI)", "setting": "[2]", "value": 0.93}]}, {"compound": "O=C(CSc1nnc(-c2ccc3nc(-c4ccc(N5CCOCC5)cc4)[nH]c3c2)o1)c1ccc(Cl)cc1", "note": "[5e, 1-(4-Chlorophenyl)-2-((5-(2-(4-morpholinophenyl)-1H-benzo[d]imidazol-6-yl)-1,3,4-oxadiazol-2-yl) Thio) Ethan-1-One]", "values": [{"measurement": "IC50", "setting": "[1]", "value": "531 ± 8.1", "unit": "µM"}, {"measurement": "IC50", "setting": "[2]", "value": "104 ± 4.53", "unit": "µM"}, {"measurement": "Selectivity index (SI)", "setting": "[2]", "value": 5.12}]}, {"compound": "N#Cc1ccc(C(=O)CSc2nnc(-c3ccc4nc(-c5ccc(N6CCOCC6)cc5)[nH]c4c3)o2)cc1", "note": "[5f, 4-(2-(5-(2-(4-Morpholinophenyl)-1H-benzo[d]imidazol-6-yl-1,3,4-oxadiazol-2-yl) Thio) Acetyl) Benzonitrile]", "values": [{"measurement": "IC50", "setting": "[1]", "value": "14.7 ± 0.818", "unit": "µM"}, {"measurement": "IC50", "setting": "[2]", "value": "30.2 ± 1.16", "unit": "µM"}, {"measurement": "Selectivity index (SI)", "setting": "[2]", "value": 0.49}]}, {"compound": "O=C(CSc1nnc(-c2ccc3nc(-c4ccc(N5CCOCC5)cc4)[nH]c3c2)o1)c1ccc([N+](=O)[O-])cc1", "note": "[5g, 2-(5-(2-(4-Morpholinophenyl)-1H-benzo[d]imidazol-6-yl-1,3,4-oxadiazol-2-yl)thio)-1-(4-nitrophenyl) Ethan-1-One]", "values": [{"measurement": "IC50", "setting": "[1]", "value": "> 1000", "unit": "µM"}, {"measurement": "IC50", "setting": "[2]", "value": "260 ± 8.68", "unit": "µM"}]}, {"compound": "O=C(CSc1nnc(-c2ccc3nc(-c4ccc(N5CCOCC5)cc4)[nH]c3c2)o1)c1ccc(Cl)c(Cl)c1", "note": "[5h, 1-(3,4-Dichlorophenyl)-2-((5-(2-(4-morpholinophenyl)-1H-benzo[d]imidazol-6-yl)-1,3,4-oxadiazol-2-yl) Thio) Ethan-1-One]", "values": [{"measurement": "IC50", "setting": "[3]", "value": "0.049 ± 0.002", "unit": "µM"}, {"measurement": "IC50", "setting": "[1]", "value": "15.2 ± 0.987", "unit": "µM"}, {"measurement": "early apoptosis", "setting": "[4]", "value": "2.05 ± 0.25", "unit": "%"}, {"measurement": "late apoptosis", "setting": "[4]", "value": "16.95 ± 2.85", "unit": "%"}, {"measurement": "necrosis", "setting": "[4]", "value": "12.2 ± 2.1", "unit": "%"}, {"measurement": "fold higher cytotoxic activity than compound 5e", "setting": "[2]; HT-29, compared to 5e", "value": "approximately 33 fold"}, {"measurement": "IC50", "setting": "[2]", "value": "3.1 ± 0.979", "unit": "µM"}, {"measurement": "Selectivity index (SI)", "setting": "[2]", "value": 4.88}]}, {"compound": "Cc1ccc(C(=O)CSc2nnc(-c3ccc4nc(-c5ccc(N6CCOCC6)cc5)[nH]c4c3)o2)c(C)c1", "note": "[5i, 1-(2,4-Dimethylphenyl)-2-((5-(2-(4-morpholinophenyl)-1H-benzo[d]imidazol-6-yl)-1,3,4-oxadiazol-2-yl) Thio) Ethan-1-One]", "values": [{"measurement": "IC50", "setting": "[1]", "value": "148 ± 3.99", "unit": "µM"}, {"measurement": "IC50", "setting": "[2]", "value": "72.1 ± 4.61", "unit": "µM"}, {"measurement": "Selectivity index (SI)", "setting": "[2]", "value": 2.05}]}, {"compound": "O=C(CSc1nnc(-c2ccc3nc(-c4ccc(N5CCOCC5)cc4)[nH]c3c2)o1)c1ccc(Br)cc1", "note": "[5j, 1-(4-Bromophenyl)-2-((5-(2-(4-morpholinophenyl)-1H-benzo[d]imidazol-6-yl)-1,3,4-oxadiazol-2-yl) Thio) Ethan-1-One]", "values": [{"measurement": "IC50", "setting": "[3]", "value": "0.098 ± 0.011", "unit": "µM"}, {"measurement": "IC50", "setting": "[1]", "value": "4.55 ± 0.763", "unit": "µM"}, {"measurement": "IC50", "setting": "[2]", "value": "9.66 ± 0.149", "unit": "µM"}, {"measurement": "Selectivity index (SI)", "setting": "[2]", "value": 0.47}]}, {"compound": "CNC(=O)c1cc(Oc2ccc(NC(=O)Nc3ccc(Cl)c(C(F)(F)F)c3)cc2)ccn1", "note": "[Sorafenib, reference compound]", "values": [{"measurement": "IC50", "setting": "[1]", "value": "30.13 ± 0.147", "unit": "µM"}, {"measurement": "IC50", "setting": "[2]", "value": "2.92 ± 0.214", "unit": "µM"}]}]}
